Reference: patent publication US6723702B2, “Use of relaxin treat diseases related to vasoconstriction” (RAS Medical, Inc., priority 2000, dated 2004)

Assays:
conscious rats = test: Acute infusion of ANG II during chronic infusion of purified porcine RLX; assay type: in vivo, rat; conditions: for ERPF / ERVR / GFR / MAP: RLX 4 μg/h s.c. day 5
Description: At least 7 days after the implantation of vascular and bladder catheters, osmotic minipumps containing either porcine RLX (4 μg/hour) or vehicle (Ringer's solution) were implanted in intact, female rats (n=7 and 6 rats, respectively). Renal function and MAP were measured on day 5 of relaxin infusion (three 30-minute urine and midpoint blood collections). Next, an infusion of L-NAME (2 μg/minute, a substrate competitive inhibitor of NO synthase) was administered intravenously (i.v.) by infusion pump (Model 200, KD Scientific, Boston, Mass.). Four 1-hour urine collections with midpoint blood samples were collected for the assessment of GFR, ERPF, and ERVR during the L-NAME administration. Identical procedures were performed on additional animals chronically administered porcine RLX (n=5) or vehicle (n=5), except that ANG II (3 ng/minute) was infused rather than L-NAME. Finally, another four, age-matched control rats were administered Ringer's solution instead of either L-NAME or ANG II on day 5 of porcine RLX infusion.
To minimize the possibility that the convergence of renal function in the relaxin and vehicle infused rats elicited by L-NAME was merely a consequence of nonspecific renal vasoconstriction, the experimental paradigm was repeated using another vasoconstrictor, ANG II. Values are provided as mean±SEM. Relaxin, RLX; Angiotensin II, ANG II. ANG II was infused at 3 ng/min i.v., and RLX at 4 μg/h by osmotic minipump s.c. There were five rats each in the RLX and vehicle groups. *p<0.05 vs baseline, Hp<0.05 RLX vs vehicle.

db/db mice = test: Full thickness wound healing in db/db mice; assay type: in vivo, mouse
Description: To determine whether rhRlx would improve healing in this model of impaired healing, standardized full thickness (1.5 cm×1.5 cm) wounds were made on the back of db/db mice (Jackson Laboratories, Bar Harbor, Me.). Mice were treated continuously for 21 days with rhRlx via a subcutaneously implanted Alzet pump at a dose of either 0.1 mg/kg/day or 0.2 mg/kg/day. Wound areas were measured in the course of the study. Healing is presented as wound area on day 14 relative to the original size of the wound on day 0 and is calculated as: % of original wound area=[Area on day 14/area on day 0]×100. […] Wound closure was expressed as “% of original wound area.” There were 8-20 animals per group. Wound closure was 91.4% in control group vs. 64% in the relaxin-treated group (p<0.05 by Student-Newman-Kuels test). The differences in the extent of wound healing were small among vehicle control and low dose of rhRlx treatment as well as PDGF (5 μg/wound/day for 5 days) treated mice.
At day 21-post surgery, the wounds were also excised and fixed in formalin prior to paraffin embedding. Sections from the middle of the wound were stained with Masson's trichrome and evaluated by two investigators. […] Inflammatory cell accumulation was present at the wound edges.
Neovascularization is a key component of granulation tissue formation. New blood vessel formation is stimulated by a variety of growth factors including bFGF, and VEGF. […] Immunohistochemical staining of the midsection of full thickness wounds using polyclonal antibody to von Willebrand factor VIII-related antigen was used to identify new blood vessels in the wounds.

conscious male rats = test: 5-day rhRLX infusion in conscious male rats: MAP, renal function, hematocrit, plasma osmolality, sodium; assay type: in vivo, rat
Description: After being placed in the experimental cage, a 100 μl blood sample was drawn from the arterial catheter into a heparinized tube for measurement of baseline plasma osmolality, sodium concentration and hematocrit prior to the administration of any fluids. […] Next, a bolus of inulin (IN, 0.2 ml of a 20% stock solution/100 g BW) and para-aminohippurate (PAH, 0.1 ml of a 2% working solution/100 g BW) was given over 1 minute into the venous catheter followed by a constant infusion of the two reagents at a rate of 0.5 mg/minute per 100 g BW and 0.1 mg/minute per 100 g BW, respectively. The flow rate was 19 μl/minute delivered by a Model 200 Syringe Pump (kd Scientific, Boston Mass.). Finally, the obturator in the bladder catheter was removed, and the latter was extended with a short piece of polyethylene tubing to facilitate the collection of urine.
The technique of urine collection has proven to be reliable. Conrad and Colpoys (1986) J. Clin. Invest. 77:236-245; Danielson and Conrad (1995) J. Clin. Invest. 96:482-490; and Danielson and Conrad (1996) Circ. Res. 79:1161-1166. Indeed, after reaching steady-state in this study, the excretion rates of IN and PAH were 91±3 and 100±4% of their respective infusions. After measuring baseline mean arterial pressure and renal function, an osmotic minipump (model 2ML1, Alza Co., Palo Alto Calif.) containing either recombinant human relaxin (rhRLX; n=12 rats) or vehicle (n=7) was implanted subcutaneously on the back using light ether anesthesia. […] Five days later, mean arterial pressure (MAP), glomerular filtration rate (GFR), effective renal plasma flow (ERPF), and other parameters were again assessed as describe above. At this time, the excretion rates of IN and PAH were 91±3 and 98±2% of their respective infusion rates. At the end of the experiment, 1.0 ml of blood was collected for determination of serum rhRLX.
Inulin concentration in plasma and urine was measured by the anthrone method, and PAH was determined by the method of Bratton and Marshall as modified by Smith. This method is described in Conrad (1984) Kidney Int. 26:24-29, and references cited therein. Plasma sodium was measured by a Kodak Ektachem Instrument (Rochester, N.Y.). Plasma osmolality was determined by freezing point depression (Advanced Osmometer, Model 3MO, Advanced Instruments, Needham Heights Mass.). All urine and plasma samples from MWRI were coded and sent to UNM for analysis of IN, PAH, sodium and osmolality (by L.A.D.). The rhRLX in serum was measured using a quantitative sandwich immunoassay, again in a blinded fashion. Danielson et al. (1999) J. Clin. Invest. 103:525-533.

Porcine RLX: lyophilized, purified porcine relaxin (Sherwood and O'Byrne 1974), dissolved in Ringer's solution
ERPF (conscious rats; ANG II 3 ng/min i.v., 60 min): 8926 | ERVR (conscious rats; ANG II 3 ng/min i.v., 60 min): 8.88 | GFR (conscious rats; ANG II 3 ng/min i.v., 60 min): 2980 | MAP (conscious rats; ANG II 3 ng/min i.v., 60 min): 130 | ERPF (conscious rats; ANG II 3 ng/min i.v., 120 min): 9646 | ERVR (conscious rats; ANG II 3 ng/min i.v., 120 min): 9.24 | GFR (conscious rats; ANG II 3 ng/min i.v., 120 min): 2653 | MAP (conscious rats; ANG II 3 ng/min i.v., 120 min): 142 | ERPF (conscious rats; ANG II 3 ng/min i.v., 180 min): 7738 | ERVR (conscious rats; ANG II 3 ng/min i.v., 180 min): 11.52 | GFR (conscious rats; ANG II 3 ng/min i.v., 180 min): 2578 | MAP (conscious rats; ANG II 3 ng/min i.v., 180 min): 143 | ERPF (conscious rats; ANG II 3 ng/min i.v., 240 min): 7698 | ERVR (conscious rats; ANG II 3 ng/min i.v., 240 min): 11.84 | GFR (conscious rats; ANG II 3 ng/min i.v., 240 min): 2763 | MAP (conscious rats; ANG II 3 ng/min i.v., 240 min): 146 | ERPF (conscious rats; Baseline before ANG II): 10364 | ERVR (conscious rats; Baseline before ANG II): 6.23 | GFR (conscious rats; Baseline before ANG II): 2929 | MAP (conscious rats; Baseline before ANG II): 111 | percent increase in MAP and reduction in GFR elicited by ANG II (conscious rats; RLX treated vs vehicle infused rats): comparable | percent increase in ERVR and reduction in ERPF elicited by ANG II (conscious rats; chronic relaxin vs vehicle): markedly attenuated

rhRLX: recombinant human relaxin, identical in amino acid sequence to the product of the human H2 gene; A chain of 24, B chain of 29 amino acids
Wound closure, % of original wound area (db/db mice; 0.2 mg/kg/day, day 14): 64% | staining for von Willebrand factor VIII-related antigen (new blood vessels) (db/db mice; compared to wounds of vehicle treated animals): stronger positive staining | wound histology, Masson's trichrome (db/db mice; day 21-post surgery): thick, cellular and vascular granulation tissue | differences in the extent of wound healing vs vehicle control (db/db mice; low dose of rhRlx (0.1 mg/kg/day)): small | effect on ERPF (conscious male rats; 4 μg/hour for 5 days (FIG. 3)): significantly increased | effect on ERVR (conscious male rats; 4 μg/hour for 5 days (FIG. 3)): reducing | effect on GFR (conscious male rats; 4 μg/hour for 5 days (FIG. 3)): significantly increased | effect on MAP (conscious male rats; 4 μg/hour for 5 days (FIG. 3)): did not significantly affect | HCT (hematocrit), change from the baseline (conscious male rats; rhRLX 4 μg/hour for 5 days): −5.0 ± 0.6 % | PNa+ (plasma sodium concentration), change from the baseline (conscious male rats; rhRLX 4 μg/hour for 5 days): −5.3 ± 0.4 mEq/L | Posm (plasma osmolality), change from the baseline (conscious male rats; rhRLX 4 μg/hour for 5 days): −10.9 ± 1.4 mOsm/kg H2O
